The subject of one data set is HIV-1NL4-3. In words: HIV-1 infectivity assay in TZM-bl reporter cell line (LTR-luciferase, 48 h). Format: cell-based. The following applies: for inhibition at 1 µM: Human immunodeficiency virus 1, TZM-bl. A digest of the protocol: (§1)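 Read-out is luciferase from an integrated HIV-1 LTR reporter in TZM-bl cells, 48 h after HIV-1NL4-3 infection in the presence of 1 μM compound. Scale set by DMSO-treated wild-type-infected cells (0%) and Nef-defective virus (100% Nef-dependent effect). Cell Titer Blue measures cytotoxicity without virus.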

Another data set has as its system TZM-bl cell line. It counts as cell-based. The following applies: 1 μM. The gist of the method:
as §1

The target of a further data set is HIV-1 NefNL4-3 (Human immunodeficiency virus type 1 group M subtype B, UniProt P03406, A33V/T15A/T51N/V11I). In words: Surface plasmon resonance binding to recombinant full-length Nef (NL4-3). The following applies: for RU30/RUNef (extent of binding): response units at 30 μM relative to Nef immobilized on the SPR chip.
The mark [1] stands for this setting: 1.0 μM, TZM-bl reporter cell line, Table 4, read-out: % Infectivity Inhibition.
[2] abbreviates: 48 h, Table 1, TZM-bl cells, 1 μM, 48 h, 100% = Nef-defective HIV-1, read-out: HIV-1 Infectivity % Inhibition Norm. to Δ-Nef @ 1 μM.
Setting [3] is: KD, M, Table 4, SPR fit 2-step induced fit, KD = koff/kon × koff2/(koff2 + kon2).
Where [4] appears, read: Nef NL4-3 Binding, SPR 2-state fitting KD, Table 1, 2-step induced-fit model.
Setting [5] is: Table 4, 2-step induced fit, T = 1/koff2.
Setting [6] is: KD, M, Table 4, SPR fit 1:1 Langmuir, KD = koff/kon.
[7] abbreviates: Table 4, 1:1 Langmuir fit, T = 1/koff.
Where [8] appears, read: read-out: Nef NL4-3 Binding, SPR 1:1 or 2-site fitting KD2, Table 1, 2-site fit, second component.

Like-named read-outs stand apart in the source and are kept apart here.

The inhibition is the drop in the measured response relative to a control, in per cent.

For `CC(C)(C)OC(=O)N1C[C@@H]2[C@H](C1)[C@H]2c1nn(-c2nc3ccccc3[nH]2)c(O)c1CCc1ccc(F)cc1` [Compound I-209, tert-butyl 6-[1-(1H-1,3-benzodiazol-2-yl)-4-[2-(4-fluorophenyl)ethyl]-5-hydroxy-1H-pyrazol-3-yl]-3-azabicyclo[3.1.0]hexane-3-carboxylate], the inhibition at 1 µM in the data set with HIV-1NL4-3 (setting [1]) and in the data set on HIV-1NL4-3 (setting [2]) was 4.2% throughout. In the data set on TZM-bl cell line (human), the “% Cell Viability” value is listed as 100%. The “Percent Viability @ 1 μM (TZM-bl cells)” value with TZM-bl cell line (human) is 100.1%. Besides, the figures for the Kd on HIV-1 NefNL4-3, on HIV-1 NefNL4-3 (setting [3]) and at HIV-1 NefNL4-3 (setting [4]) were 776 nM, 4830 nM and 5830 nM, respectively. The “T, minutes (residence time)” value on HIV-1 NefNL4-3 (setting [5]) is given as 3.81E- 01 minutes. Also, the “RU30/RUNef (extent of binding)” value on HIV-1 NefNL4-3 was 8.59E- 03.

`CC(C)(C)OC(=O)N1CCN(Cc2nn(-c3nc4ccccc4[nH]3)c(O)c2CCc2ccc(F)cc2)CC1` [Compound I-211, tert-butyl 4-{[1-(1H-1,3-benzodiazol-2-yl)-4-[2-(4-fluorophenyl)ethyl]-5-hydroxy-1H-pyrazol-3-yl]methyl}piperazine-1-carboxylate]: the inhibition at 1 µM in the data set with HIV-1NL4-3 (setting [1]) was 0%; with HIV-1NL4-3 (setting [2]), -19.4%. For the same compound, the “% Cell Viability” value in the data set with TZM-bl cell line (human) was determined as 100%. In addition, the “Percent Viability @ 1 μM (TZM-bl cells)” value in the data set with TZM-bl cell line (human) was 103.5%. The Kd on HIV-1 NefNL4-3 and at HIV-1 NefNL4-3 (setting [6]) was 7220 nM in each case. Further, the “T, minutes (residence time)” value at HIV-1 NefNL4-3 (setting [7]) was 1.65E + 00 minutes. Further, the “RU30/RUNef (extent of binding)” value at HIV-1 NefNL4-3 is listed as 2.89E- 03.

For `CC(C)(C)OC(=O)NCc1nn(-c2nc3ccccc3[nH]2)c(O)c1CCc1ccc(F)cc1` [Compound I-212, tert-butyl N-{[1-(1H-1,3-benzodiazol-2-yl)-4-[2-(4-fluorophenyl)ethyl]-5-hydroxy-1H-pyrazol-3-yl]methyl}carbamate], the inhibition at 1 µM with HIV-1NL4-3 (setting [2]) came to 50.9%. The “Percent Viability @ 1 μM (TZM-bl cells)” value in the data set on TZM-bl cell line (human) was 92.9%. Also, the Kd on HIV-1 NefNL4-3 came out at 538 nM; at HIV-1 NefNL4-3 (Nef NL4-3 Binding, SPR 1:1 or 2-site fitting KD2, Table 1, 2-site fit, second component) it was 1480 nM; at HIV-1 NefNL4-3 (setting [4]), 2320 nM.

On to `CC(C)(C)OC(=O)NC1(c2nn(-c3nc4ccccc4[nH]3)c(O)c2CCc2ccc(F)cc2)CCOCC1` [Compound I-213, tert-butyl N-{4-[1-(1H-l,3-benzodiazol-2-yl)-4-[2-(4-fluorophenyl)ethyl]-5-hydroxy-1H-pyrazol-3-yl]oxan-4-yl}carbamate], for which the “HIV-1 Infectivity % Inhibition Norm. to Δ-Nef @ 1 μM” value in the data set with HIV-1NL4-3 (Table 1, TZM-bl cells, 1 μM, 48 h, 100% = Nef-defective HIV-1) was −4.6%. Also, the “Percent Viability @ 1 μM (TZM-bl cells)” value in the data set on TZM-bl cell line (Table 1, uninfected TZM-bl cells, Cell Titer Blue) is recorded as 97.6%. Besides, at HIV-1 NefNL4-3 (Table 1, 1:1 Langmuir fit where the KD2 cell says '1 to 1 fitting', else 2-site fit, read-out: Nef NL4-3 Binding, SPR 1:1 or 2-site fitting KD1), the Kd turned out to be 1600 nM.

As for `CC(C)(C)OC(=O)N1CCCC(Cc2nn(-c3nc4ccccc4[nH]3)c(O)c2CCc2ccc(F)cc2)C1` (stereo not shown) [Compound I-214, tert-butyl 3-{[1-(1H-1,3-benzodiazol-2-yl)-4-[2-(4-fluorophenyl)ethyl]-5-hydroxy-1H-pyrazol-3-yl]methyl}piperidine-1-carboxylate], in the data set with HIV-1NL4-3 (setting [2]), the inhibition at 1 µM is -5.5%. For the same compound, in the data set on TZM-bl cell line (human), the “Percent Viability @ 1 μM (TZM-bl cells)” value worked out at 99.9%. The Kd on HIV-1 NefNL4-3 stood at 20.8 nM.

Consider `CC(C)(C)OC(=O)N1CCC(c2nn(-c3nc4cccc(Cl)c4[nH]3)c(O)c2CCc2ccc(F)cc2)CC1` [Compound I-217, tert-butyl 4-[1-(7-chloro-1H-1,3-benzodiazol-2-yl)-4-[2-(4-fluorophenyl)ethyl]-5-hydroxy-1H-pyrazol-3-yl]piperidine-1-carboxylate], for which, in the data set with HIV-1NL4-3 (setting [2]), the inhibition at 1 µM stood at 0.1%. For the same compound, the “Percent Viability @ 1 μM (TZM-bl cells)” value with TZM-bl cell line (human) is 104.9%. Further, on HIV-1 NefNL4-3 (Table 1, 1:1 Langmuir fit where the KD2 cell says '1 to 1 fitting', else 2-site fit), the “Nef NL4-3 Binding, SPR 1:1 or 2-site fitting KD1” value is reported as “No Interaction”.

With `CC(C)(C)OC(=O)N1CCC(CCc2c(C3CC3)nn(-c3nc4cc(Cl)ccc4[nH]3)c2O)CC1` [Compound I-218, tert-butyl 4-{2-[1-(5-chloro-1H-1,3-benzodiazol-2-yl)-3-cyclopropyl-5-hydroxy-1H-pyrazol-4-yl]ethyl}piperidine-1-carboxylate], the inhibition at 1 µM in the data set on HIV-1NL4-3 (setting [1]) was 0%; in the data set on HIV-1NL4-3 (setting [2]) it was -7%. Besides, the “% Cell Viability” value in the data set on TZM-bl cell line (human) amounted to 97.9%. For the same compound, the “Percent Viability @ 1 μM (TZM-bl cells)” value in the data set with TZM-bl cell line (human) is listed as 97.9%. Further, the Kd on HIV-1 NefNL4-3 was 1120 nM; at HIV-1 NefNL4-3 (setting [3]) it was 692 nM; at HIV-1 NefNL4-3 (setting [4]), 692 nM. In addition, at HIV-1 NefNL4-3 (setting [5]), the “T, minutes (residence time)” value is listed as 1.02E + 01 minutes. Moreover, the “RU30/RUNef (extent of binding)” value at HIV-1 NefNL4-3 is 1.32E- 02.

In the case of `CC(C)(C)OC(=O)N1CCC(c2nn(-c3nc4cc(F)c(F)cc4[nH]3)c(O)c2CCc2ccc(F)cc2)CC1` [Compound I-219, tert-butyl 4-[1-(5,6-difluoro-1H-1,3-benzodiazol-2-yl)-4-[2-(4-fluorophenyl)ethyl]-5-hydroxy-1H-pyrazol-3-yl]piperidine-1-carboxylate], the inhibition at 1 µM in the data set with HIV-1NL4-3 (setting [1]) was determined as 100%; in the data set on HIV-1NL4-3 (setting [2]), 109%. In addition, the “% Cell Viability” value with TZM-bl cell line (human) is on record as 79.2%. Moreover, the “Percent Viability @ 1 μM (TZM-bl cells)” value in the data set with TZM-bl cell line (human) was 79.2%. Besides, the Kd at HIV-1 NefNL4-3 (setting [3]) came out at 49.3 nM; on HIV-1 NefNL4-3 (setting [4]) it was 49.3 nM; at HIV-1 NefNL4-3 (setting [8]) it was 3290 nM. In addition, the “T, minutes (residence time)” value at HIV-1 NefNL4-3 (setting [5]) is reported as 4.93E + 02 minutes. Besides, on HIV-1 NefNL4-3, the “RU30/RUNef (extent of binding)” value is reported as 4.76E- 03.

For the compound `CC(C)(C)OC(=O)N1CCC(c2nn(-c3nc4cccnc4[nH]3)c(O)c2CCc2ccc(F)cc2)CC1` [Compound I-220, tert-butyl 4-{4-[2-(4-fluorophenyl)ethyl]-5-hydroxy-1-{3H-imidazo[4,5-b]pyridin-2-yl}-1H-pyrazol-3-yl}piperidine-1-carboxylate], the inhibition at 1 µM in the data set on HIV-1NL4-3 (setting [1]) and in the data set with HIV-1NL4-3 (setting [2]) was 9.8% throughout. In addition, in the data set on TZM-bl cell line (human), the “% Cell Viability” value is 100%. The “Percent Viability @ 1 μM (TZM-bl cells)” value in the data set with TZM-bl cell line (human) is given as 103.6%. In addition, the Kd amounted to 283 nM on HIV-1 NefNL4-3, 3950 nM on HIV-1 NefNL4-3 (setting [3]), 3950 nM at HIV-1 NefNL4-3 (setting [4]) and 3820 nM on HIV-1 NefNL4-3 (setting [8]). For the same compound, at HIV-1 NefNL4-3 (setting [5]), the “T, minutes (residence time)” value is 6.92E + 00 minutes. In addition, on HIV-1 NefNL4-3, the “RU30/RUNef (extent of binding)” value is on record as 7.24E- 03.

For `CC(C)(C)OC(=O)N1CCC(c2nn(-c3nc4ccncc4[nH]3)c(O)c2CCc2ccc(F)cc2)CC1` [Compound I-221, tert-butyl 4-{4-[2-(4-fluorophenyl)ethyl]-5-hydroxy-1-{3H-imidazo[4,5-c]pyridin-2-yl}-1H-pyrazol-3-yl}piperidine-1-carboxylate], in the data set on HIV-1NL4-3 (setting [2]), the inhibition at 1 µM turned out to be 10.6%. In addition, the “Percent Viability @ 1 μM (TZM-bl cells)” value in the data set with TZM-bl cell line (human) is on record as 103.1%. Further, the Kd at HIV-1 NefNL4-3 came to 12800 nM.

Take `Oc1c(CCc2ccc(F)cc2)c(-c2ccc(C(F)(F)F)cn2)nn1-c1nc2cccnc2[nH]1` [Compound I-302, 4-[2-(4-fluorophenyl)ethyl]-1-{3H-imidazo[4,5-b]pyridin-2-yl}-3-[5-(trifluoromethyl)pyridin-2-yl]-1H-pyrazol-5-ol]: in the data set with HIV-1NL4-3 (setting [1]), the inhibition at 1 µM is 0%. Moreover, in the data set with HIV-1NL4-3 (setting [2]), the inhibition at 1 µM is -2.4%. In addition, in the data set with TZM-bl cell line (human), the “% Cell Viability” value worked out at 98.9% and the “Percent Viability @ 1 μM (TZM-bl cells)” value is given as 98.9%. For the same compound, on HIV-1 NefNL4-3, the Kd amounted to 3610 nM and the “RU30/RUNef (extent of binding)” value is recorded as 1.66E- 03. In addition, the Kd on HIV-1 NefNL4-3 (setting [6]) came out at 3610 nM. For the same compound, at HIV-1 NefNL4-3 (setting [7]), the “T, minutes (residence time)” value turned out to be 8.82E + 00 minutes.
